Test results reported in patent US11186577B2, “Vasopressin receptor antagonists and products and methods related thereto” (BlackThorn Therapeutics, Inc., priority 2017, dated 2021).
Where two headings read alike, the source gives them in different places.

What was measured:
[1] = molecular target: human Arginine Vasopressin Receptor 1a (AVPR1a) (Homo sapiens (Human), UniProt P37288); assay: Vasopressin V1A receptor antagonist assay (AVP-evoked calcium, FLIPR, CHO-AVPR1a cells); format: cell-based
Experimental: The purpose of this assay was to determine the inhibitory effect of synthesized compounds on the Vasopressin V1a receptor. The assay as performed in Chinese Hamster Ovary (CHO) cells expressing the human Arginine Vasopressin Receptor 1a (AVPR1a). Arginine Vasopressin (AVP) evokes an increase in intracellular calcium in CHO-AVPR1a cells which is measured in a fluorescence assay on the FLIPR^TETRA using calcium sensitive dyes. Test compounds were assessed for their ability to affect the magnitude of the response to AVP, with antagonists showing a concentration-dependent reduction in the AVP-mediated fluorescence. Compounds were tested in duplicate in a 10-point, 1:3 dilution series starting at a nominal concentration of 3 μM in the assay.
CHO-AVPR1a cells were maintained in routine culture in T175 Flasks at 37° C., 5% CO2. The growth medium consists of Ham's F12 media supplemented with 10% v/v fetal bovine serum, 1× non-essential amino acids, and 0.4 mg/ml Geneticin G418.
On day one, cells were harvested from T175 flasks when they are 80-90% confluent by first washing the cell monolayer with PBS and then dissociated using trypsin 0.05%/EDTA (3 mL for a T175 Flask). The flasks were incubated at room temperature until the cells detached. To the cell suspension, 10 ml of growth media was added and the cell density determined using the Vi-Cell automated cell counter. The cells were spun at 1000 rpm for 3 minutes, then the supernatant was carefully removed and discarded. The cell pellet was re-suspended at 6.0e^5 cells/ml in growth media. 25 μL of cells in growth media was dispensed into each well (15,000 cells per well) of a poly-D-lysine coated black, clear bottomed, 384-well plate. The plates were incubated at 37° C., 5% CO2 overnight.
At the start of each assay day, the potency of AVP was assessed and an EC80 concentration determined for subsequent compound profiling. Assays were performed using a two-step addition protocol on the FLIPR^TETRA; first addition of 5 μl of control or test compound at 10× final in assay buffer with 15 min incubation at 37° C., 5% CO2 followed by 10 μl of AVP at 6× final concentration in assay buffer. […] The assay buffer consisted of HBSS (+Ca/+Mg) supplemented with 20 mM HEPES, and for the preparation of the AVP agonist only, 0.1% w/v bovine serum albumin. The assay was initiated by the removal of growth media from the cells and replacement with 45 μl of Calcium-6 dye (Molecular Devices) prepared at 1× in assay buffer. Cells are loaded with dye for 60-90 min at 37° C., 5% CO2 before initiation of the FLIPR^TETRA protocol. […] At the end of the incubation period, 10 μl of AVP in assay buffer containing 0.1% BSA was added at the previously determined EC80 concentration.

[2] = molecular target: human Oxytocin Receptor (hOTR) (Homo sapiens (Human), UniProt P30559); assay: Oxytocin receptor antagonist assay (oxytocin-evoked calcium, FLIPR, CHEM-1-hOTR cells); format: cell-based; conditions: read-out: OT IC50
Experimental: This assay was performed in CHEM-1 cells expressing the human Oxytocin Receptor (hOTR) to determine the inhibitory effect of the compounds of the invention on the human Oxytocin receptor. Oxytocin evokes an increase in intracellular calcium in CHEM-1-hOTR cells which is measured in a fluorescence assay on the FLIPR^TETRA using calcium sensitive dyes. Test compounds were assessed for their ability to affect the magnitude of the response to oxytocin, with antagonists showing a concentration-dependent reduction in the oxytocin-mediated fluorescence.
CHEM-1-hOTR ready was used to assay frozen cells (Eurofins #HTS090RTA) which are supplied with a proprietary Media Component.
Cells were thawed in a 37° C. water bath and diluted with the supplied Media Component to a final volume of 10 ml. The cell suspension was centrifuged at 1000 rpm for 3 min at room temperature and the supernatant was discarded. The cell pellet was resuspended in Media Component (10.5 ml) and the cells (25 μL) were dispensed into a poly-D-lysine coated black, clear bottomed, 384-well plate. The plates were incubated overnight at 37° C., 5% CO2.
At the start of each assay day the potency of oxytocin was assessed and an EC80 concentration was determined for subsequent compound profiling. Assays were performed using a two-step addition protocol on the FLIPR^TETRA; first addition of 5 μl of control or test compound at 10× final in assay buffer with 15 min incubation at 37° C., 5% CO2 followed by 10 μl of oxytocin at 6× final concentration in assay buffer. Changes in fluorescence were monitored for 3 min after both additions on the FLIPR^TETRA using 470-495 nm excitation and 515-575 nm emission wavelengths. The assay buffer consisted of HBSS (+Ca/+Mg) supplemented with 20 mM HEPES, and for the preparation of the oxytocin agonist only, 0.1% w/v bovine serum albumin. The assay was initiated by the removal of growth media from the cells and replaced with 45 μl of Calcium-6 dye (Molecular Devices) prepared at 1× in assay buffer. Cells were loaded with dye for 60-90 min at 37° C., 5% CO2 before initiation of the FLIPR^TETRA protocol. […] For compound profiling, test compounds were first serially diluted in DMSO (10-point curve, 1:3 dilutions) then diluted 33.3-fold in assay buffer prior to addition to the dye loaded cells on the FLIPR^TETRA. At the end of the incubation period 10 μl of oxytocin in assay buffer containing 0.1% BSA was added at the previously determined EC80 concentration.
In-plate controls for the assay include a L-368,899 concentration-response curve as the reference OTR antagonist and an oxytocin concentration-response curve to confirm the reproducibility of the EC80 used for the compound challenge.

Sequence of human Oxytocin Receptor (hOTR) (P30559 whole entry): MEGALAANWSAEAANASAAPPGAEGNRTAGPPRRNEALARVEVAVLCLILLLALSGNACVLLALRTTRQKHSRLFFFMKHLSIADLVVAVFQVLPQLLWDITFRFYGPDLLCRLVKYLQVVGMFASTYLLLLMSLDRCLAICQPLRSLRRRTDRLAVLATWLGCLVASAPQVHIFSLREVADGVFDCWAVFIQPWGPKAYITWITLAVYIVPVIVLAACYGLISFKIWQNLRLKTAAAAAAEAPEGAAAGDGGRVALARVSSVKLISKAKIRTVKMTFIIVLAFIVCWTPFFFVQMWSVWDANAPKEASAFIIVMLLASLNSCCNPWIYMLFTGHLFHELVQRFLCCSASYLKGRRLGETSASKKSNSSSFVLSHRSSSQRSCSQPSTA
Sequence of human Arginine Vasopressin Receptor 1a (AVPR1a) (P37288 whole entry): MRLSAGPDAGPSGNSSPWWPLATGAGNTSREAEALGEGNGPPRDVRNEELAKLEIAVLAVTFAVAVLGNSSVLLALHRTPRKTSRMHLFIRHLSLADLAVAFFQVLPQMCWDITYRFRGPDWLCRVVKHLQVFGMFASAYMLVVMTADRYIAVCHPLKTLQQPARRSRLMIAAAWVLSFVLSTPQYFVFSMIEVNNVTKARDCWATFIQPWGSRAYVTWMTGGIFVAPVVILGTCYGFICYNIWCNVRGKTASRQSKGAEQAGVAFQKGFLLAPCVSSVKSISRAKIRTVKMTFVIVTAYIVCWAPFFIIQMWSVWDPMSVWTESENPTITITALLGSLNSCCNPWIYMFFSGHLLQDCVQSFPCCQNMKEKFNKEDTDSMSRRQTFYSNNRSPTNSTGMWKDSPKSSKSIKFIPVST

SMILES | IC50 ([1]; read-out: V1a IC50) [nM] | IC50 [2] [nM] | IC50 [1] [nM]
CC1c2nnc(C3CC4(C3)CN(c3ccc(F)cn3)C4)n2-c2ccc(Cl)cc2CN1C(=O)OC(CF)CF (single isomer, unassigned) [Cpd 203B] | > 1000 | > 1000 | 
CN1Cc2cc(Cl)ccc2-n2c(nnc2C2CC3(C2)CN(c2cccnc2)C3)C1 [compound 5] |  | > 1000 | 100 to 500
Cc1cccc(N2CC3(CC(c4nnc5n4-c4ccc(Cl)cc4CN(C)C5)C3)C2)n1 [compound 6] | < 100 | > 1000 | 
COc1cccc(N2CC3(CC(c4nnc5n4-c4ccc(Cl)cc4CN(C)C5)C3)C2)n1 [compound 7] |  | > 1000 | 100 to 500
CN1Cc2cc(Cl)ccc2-n2c(nnc2C2CC3(C2)CN(C(=O)OC(C)(C)C)C3)C1 [compound 9] |  | 500 to 1000 | 100 to 500
CN1Cc2cc(Cl)ccc2-n2c(nnc2C2CC3(C2)CN(c2cncc(F)c2)C3)C1 [compound 10] |  | > 1000 | 100 to 500
COc1ccc(N2CC3(CC(c4nnc5n4-c4ccc(Cl)cc4CN(C)C5)C3)C2)nc1 [compound 11] |  | > 1000 | 500 to 1000
Cc1ccc(N2CC3(CC(c4nnc5n4-c4ccc(Cl)cc4CN(C)C5)C3)C2)nc1 [compound 12] |  | > 1000 | 100 to 500
CN1Cc2cc(Cl)ccc2-n2c(nnc2C2CC3(C2)CN(c2cccnn2)C3)C1 [compound 13] |  | > 1000 | 100 to 500
CN1Cc2cc(Cl)ccc2-n2c(nnc2C2CC3(C2)CN(C(=O)C2COC2)C3)C1 [compound 14] | > 1000 | > 1000 | 
CC(=O)N1CC2(CC(c3nnc4n3-c3ccc(Cl)cc3CN(C)C4)C2)C1 [compound 15] | > 1000 | > 1000 | 
CCC(=O)N1Cc2cc(Cl)ccc2-n2c(nnc2C2CC3(C2)CN(C(=O)C2CCC2)C3)C1 [compound 37] | < 100 | > 1000 | 
CCOC(=O)N1Cc2cc(Cl)ccc2-n2c(nnc2C2CC3(C2)CN(c2ccccn2)C3)C1 [compound 68] | < 100 | > 1000 | 
CCC(=O)N1Cc2cc(Cl)ccc2-n2c(nnc2C2CC3(C2)CN(c2cccnn2)C3)C1 [compound 108] | < 100 | > 1000 | 
CCC(=O)N1Cc2cc(Cl)ccc2-n2c(nnc2C2CC3(C2)CN(c2cccc(C)n2)C3)C1 [compound 109] | < 100 | > 1000 | 
CCC(=O)N1Cc2cc(Cl)ccc2-n2c(nnc2C2CC3(C2)CN(c2ccc(F)nn2)C3)C1 [compound 112] | < 100 | > 1000 | 

SMILES | IC50 ([1]; read-out: V1a IC50) [nM] | IC50 [2] [nM] | IC50 [1] [nM]
O=C(C(F)F)N1Cc2cc(Cl)ccc2-n2c(nnc2C2CC3(C2)CN(C(=O)C2CC2)C3)C1 [compound 138] | < 100 | > 1000 | 
CCC(=O)N1Cc2cc(Cl)ccc2-n2c(nnc2C2CC3(C2)CN(c2ncc(F)cn2)C3)C1 [compound 157] | < 100 | > 1000 | 
COC(=O)N1Cc2cc(Cl)ccc2-n2c(C3CC4(C3)CN(c3ncncc3F)C4)nnc2C1C (centres unmarked) [compound 183] |  | 100 to 500 | 100 to 500
COC(=O)N1Cc2cc(Cl)ccc2-n2c(C3CC4(C3)CN(c3ncncc3F)C4)nnc2C1C (centres unmarked) [compound 188] | < 100 | 100 to 500 | 
CCOC(=O)N1Cc2cc(Cl)ccc2-n2c(C3CC4(C3)CN(c3nccc(C(F)F)n3)C4)nnc2C1C (centres unmarked) [compound 189] | < 100 | > 1000 | 
CC1c2nnc(C3CC4(C3)CN(c3ccc(F)cn3)C4)n2-c2ccc(Cl)cc2CN1C(=O)OC1CC1 (centres unmarked) [compound 191, cyclopropyl 8-chloro-1-(2-(5-fluoropyridin-2-yl)-2-azaspiro[3.3]heptan-6-yl)-4-methyl-4H-benzo[f][1,2,4]triazolo[4,3-a][1,4]diazepine-5(6H)-carboxylate] | < 100 | 500 to 1000 | 
Cc1nc(N2CC3(CC(c4nnc5n4-c4ccc(Cl)cc4CN(C)C5)C3)C2)no1 [compound 266, 3-(6-(8-chloro-5-methyl-5,6-dihydro-4H-benzo[f][1,2,4]triazolo[4,3-a][1,4]diazepin-1-yl)-2-azaspiro[3.3]heptan-2-yl)-5-methyl-1,2,4-oxadiazole] |  |  | 500 to 1000
CN1Cc2cc(Cl)ccc2-n2c(nnc2C2CC3(C2)CN(c2noc(C4CC4)n2)C3)C1 [compound 267] | > 1000 |  | 
Cc1nc(N2CC3(CC(c4nnc5n4-c4ccc(Cl)cc4CN(C4CC4)C5)C3)C2)no1 [compound 268, 3-(6-(8-chloro-5-cyclopropyl-5,6-dihydro-4H-benzo[f][1,2,4]triazolo[4,3-a][1,4]diazepin-1-yl)-2-azaspiro[3.3]heptan-2-yl)-5-methyl-1,2,4-oxadiazole] |  |  | 100 to 500
Clc1ccc2c(c1)CN(C1CC1)Cc1nnc(C3CC4(C3)CN(c3noc(C5CC5)n3)C4)n1-2 [compound 269] |  |  | 500 to 1000
Cc1nccc(N2CC3(CC(c4nnc5n4-c4ccc(Cl)cc4CN(C4CC4)C5)C3)C2)n1 [compound 270] |  |  | 100 to 500
FC(F)(F)Oc1cccnc1N1CC2(CC(c3nnc4n3-c3ccc(Cl)cc3CN(C3CC3)C4)C2)C1 [compound 272] | < 100 |  | 
Cc1ccc(F)c(N2CC3(CC(c4nnc5n4-c4ccc(Cl)cc4CN(C4CC4)C5)C3)C2)n1 [compound 273] | < 100 |  | 
COc1ccc(C)nc1N1CC2(CC(c3nnc4n3-c3ccc(Cl)cc3CN(C3CC3)C4)C2)C1 [compound 274] | < 100 |  | 
Cc1cc(C)nc(N2CC3(CC(c4nnc5n4-c4ccc(Cl)cc4CN(C4CC4)C5)C3)C2)c1 [compound 275] | < 100 |  | 
